# Measurements reported in patent publication US20260053861A1, “CELL COMPOSITIONS AND METHODS OF USING THE SAME” (THE REGENTS OF THE UNIVERSITY OF CALIFORNIA, priority 2022, published 2026).
# Structures can show the parent of a compound that is named as a salt. Residues, ends and D or L forms follow the SMILES beside them.
# System: hPSC-SCs
# Conditions: not given
row,Structure (SMILES),z.score.t
1,CN(C)CCC=C1c2ccccc2CCc2ccccc21.Cl [Amitryptiline hydrochloride],−0.7142
2,CCCc1ncc(C[n+]2ccccc2C)c(N)n1 [Amprolium hydrochloride],−1.615
3,c1cncc([C@@H]2CCCCN2)c1 [Anabasine],−0.1239
4,C[C@]12CC[C@@H](O)C[C@@H]1CC[C@@H]1[C@@H]2CC[C@]2(C)C(=O)CC[C@@H]12 [Androsterone],−1.265
5,COc1ccc(C[C@H]2NC[C@H](O)[C@H]2OC(C)=O)cc1 [Anisomycin],−2.056
6,Cc1cc(=O)n(-c2ccccc2)n1C [Antipyrine],−0.2131
7,COC(=O)C1=CCCN(C)C1 [Arecoline hydrobromide],−0.7049
8,C=C1[C@@H]2CC[C@H]3[C@]4(C)C[C@H](O[C@@H]5O[C@H](CO)[C@@H](OS(=O)(=O)O)[C@H](OS(=O)(=O)O)[C@H]5OC(=O)CC(C)C)C[C@@H](C(=O)O)[C@H]4CC[C@]3(C2)[C@@H]1O [Atractyloside potassium salt],−0.7376
9,CN1[C@@H]2CC[C@H]1C[C@@H](OC(=O)C(CO)c1ccccc1)C2 (stereo partly drawn) [Atropine sulfate monohydrate],−0.9654
10,CC1=CC(=O)C2=C(C)C[C@H](O)[C@@H]3[C@H](OC(=O)[C@H]3C)[C@H]12 [Austricine hydrate],−0.411
11,OC(c1ccccc1)(c1ccccc1)C1CCNCC1 [Azacyclonol],0.5179
12,"Cc1n[nH]c(=O)[nH]c1=O [Azathymine, 6]",−0.5337
13,CCC1(C)CC(=O)NC(=O)C1 [Bemegride],0.3241
14,CC(C)(C)CC(C)(C)c1ccc(OCCOCC[N+](C)(C)Cc2ccccc2)cc1 [Benzethonium chloride],−1.091
15,CC[C@H](CC[C@@H](C)[C@H]1CC[C@H]2[C@@H]3CC=C4C[C@@H](O)CC[C@]4(C)[C@H]3CC[C@]12C)C(C)C [Beta-sistosterol],0.1543

# Same assay, conditions: HTS viability of hPSC-SCs in the presence of 30 mM glucose; Prestwick library; Table S4
row,Structure (SMILES),z.score.t
1,"c1ccc(CNc2ncnc3[nH]cnc23)cc1 [Aminopurine, 6-benzyl]",0.3206
2,CCCCc1oc2ccccc2c1C(=O)c1cc(I)c(OCCN(CC)CC)c(I)c1 [Amiodarone hydrochloride],−1.609
3,CN(C)CCCO[C@@H]1[C@H]2OC(C)(C)O[C@H]2O[C@@H]1[C@H](O)CO [Amiprilose hydrochloride],1.178
4,CCN(CC)Cc1cc(Nc2ccnc3cc(Cl)ccc23)ccc1O [Amodiaquin dihydrochloride dihydrate],−1.767
5,Clc1ccc2c(c1)C(N1CCNCC1)=Nc1ccccc1O2 [Amoxapine],−0.09426
6,CC1(C)S[C@@H]2[C@H](NC(=O)[C@H](N)c3ccc(O)cc3)C(=O)N2[C@H]1C(=O)O [Amoxicillin],1.457
7,C[C@@H]1[C@H](O)[C@@H](C)/C=C/C=C/C=C/C=C/C=C/C=C/C=C/[C@H](O[C@@H]2O[C@H](C)[C@@H](O)[C@H](N)[C@@H]2O)C[C@@H]2O[C@](O)(C[C@@H](O)C[C@@H](O)[C@H](O)CC[C@@H](O)C[C@@H](O)CC(=O)O[C@H]1C)C[C@H](O)[C@H]2C(=O)O [Amphotericin B],0.7312
8,CC1(C)S[C@@H]2[C@H](NC(=O)[C@H](N)c3ccccc3)C(=O)N2[C@H]1C(=O)O [Ampicillin trihydrate],1.287
9,Cc1c(N)c(=O)n(-c2ccccc2)n1C [Ampyrone],0.4205
10,Nc1cc(-c2ccncc2)c[nH]c1=O [Amrinone],−1.025
11,c1ccc(CN(CC2=NCCN2)c2ccccc2)cc1 [Antazoline hydrochloride],−0.004573
12,"Cc1c(O)c(=O)n(-c2ccccc2)n1C [Antipyrine, 4-hydroxy]",0.04029
13,O=c1cc(-c2ccc(O)cc2)oc2cc(O)cc(O)c12 [Apigenin],−0.2904
14,CN[C@@H]1[C@@H](O[C@H]2O[C@H](CO)[C@@H](N)[C@H](O)[C@H]2O)OC2C[C@@H](N)[C@@H](O[C@H]3[C@H](O)[C@@H](O)[C@H](N)C[C@@H]3N)OC2[C@@H]1O (stereo partly drawn) [Apramycin],0.1828
15,OC[C@H]1O[C@@H](Oc2ccc(O)cc2)[C@H](O)[C@@H](O)[C@@H]1O [Arbutin],−0.2611
16,NC(N)=NCCCCN=C(N)N [Arcaine sulfate],−0.7567
17,C[C@@H]1CC[C@H]2[C@@H](C)C(=O)O[C@@H]3O[C@@]4(C)CC[C@@H]1[C@]32OO4 [Artemisinin],−0.5919
18,CCCNC(C)C(=O)Nc1c(C)csc1C(=O)OC (stereo not drawn) [Articaine hydrochloride],0.8481
19,O=C1O[C@H]([C@@H](O)CO)C(O)=C1O [Ascorbic acid],−0.7233
20,COc1ccc(CCN2CCC(Nc3nc4ccccc4n3Cc3ccc(F)cc3)CC2)cc1 [Astemizole],−1.866
21,O=C1C(O)=C([C@H]2CC[C@H](c3ccc(Cl)cc3)CC2)C(=O)c2ccccc21 [Atovaquone],−1.62
22,COc1ccc(CC2c3cc(OC)c(OC)cc3CC[N+]2(C)CCC(=O)OCCCCCOC(=O)CC[N+]2(C)CCc3cc(OC)c(OC)cc3C2Cc2ccc(OC)c(OC)c2)cc1OC (stereo not drawn) [Atracurium besylate],0.5041
23,Nc1ncn([C@@H]2O[C@H](CO)[C@@H](O)[C@H]2O)c(=O)n1 [Azacytidine-5],−2.144
24,Nc1nc(O)c2[nH]nnc2n1 [Azaguanine-8],−1.365
25,O=C(CCCN1CCN(c2ccccn2)CC1)c1ccc(F)cc1 [Azaperone],−0.9039
26,CCCC1C(=O)N2C(N(C)C)=Nc3ccc(C)cc3N2C1=O (stereo not drawn) [Azapropazone],1.176
27,Cn1cnc([N+](=O)[O-])c1Sc1ncnc2nc[nH]c12 [Azathioprine],0.4486

row,Structure (SMILES),z.score.t
1,CC1(C)S[C@@H]2[C@H](NC(=O)[C@H](NC(=O)N3CCNC3=O)c3ccccc3)C(=O)N2[C@H]1C(=O)O [Azlocillin sodium salt],1.635
2,C[C@H]1[C@H](NC(=O)/C(=N\OC(C)(C)C(=O)O)c2csc(N)n2)C(=O)N1S(=O)(=O)O [Aztreonam],1.36
3,CCOC(=O)OC(C)OC(=O)[C@@H]1N2C(=O)[C@@H](NC(=O)[C@H](N)c3ccccc3)[C@H]2SC1(C)C (stereo partly drawn) [Bacampicillin hydrochloride],0.3231
4,"CC[C@H](C)[C@H](N)C1=N[C@H](C(=O)N[C@@H](CC(C)C)C(=O)N[C@H](CCC(=O)O)C(=O)N[C@H](C(=O)N[C@H]2CCCCNC(=O)[C@H](CC(N)=O)NC(=O)[C@@H](CC(=O)O)NC(=O)[C@H](Cc3cnc[nH]3)NC(=O)[C@@H](Cc3ccccc3)NC(=O)[C@H]([C@@H](C)CC)NC(=O)[C@@H](CCCN)NC2=O)[C@@H](C)CC)CS1 [Bacitracin] (HELM PEPTIDE1{[CC[C@H](C)[C@H](N)C1=N[C@H](C(=O)[*:2])CS1].L.[dE].I.K.[NCCC[C@@H](N[*:1])C(=O)[*:2]].I.[dF].H.[dD].N}$PEPTIDE1,PEPTIDE1,5:R3-11:R2$$$V2.0)",1.163
5,O=C(O)CCNC(=O)c1ccc(/N=N/c2ccc(O)c(C(=O)O)c2)cc1 [Balsalazide Sodium],0.7914
6,CN(C)C(=O)Oc1cc(OC(=O)N(C)C)cc(C(O)CNC(C)(C)C)c1 (stereo not drawn) [Bambuterol hydrochloride],−0.5919
7,CCC(=O)OCC(=O)[C@@]1(OC(=O)CC)[C@@H](C)C[C@H]2[C@@H]3CCC4=CC(=O)C=C[C@]4(C)[C@@]3(Cl)[C@@H](O)C[C@@]21C [Beclomethasone dipropionate],−0.2136
8,NS(=O)(=O)c1cc2c(cc1C(F)(F)F)NC(Cc1ccccc1)NS2(=O)=O (stereo not drawn) [Bendroflumethiazide],−1.107
9,CC(Cc1cccc(C(F)(F)F)c1)NCCOC(=O)c1ccccc1 (stereo not drawn) [Benfluorex hydrochloride],1.095
10,C/C(=C(\CCOP(=O)(O)O)SC(=O)c1ccccc1)N(C=O)Cc1cnc(C)nc1N [Benfotiamine],−0.1239
11,CCCCOc1cc(C(=O)OCCN(CC)CC)ccc1N [Benoxinate hydrochloride],0.05523
12,O=C(CCCN1CCC(n2c(O)nc3ccccc32)CC1)c1ccc(F)cc1 [Benperidol],0.1556
13,NC(CO)C(=O)NNCc1ccc(O)c(O)c1O (stereo not drawn) [Benserazide hydrochloride],−0.2359
14,NC(=NCc1ccccc1)NC(=O)c1nc(Cl)c(N)nc1N [Benzamil hydrochloride],−1.515
15,CC1(C)S[C@@H]2[C@H](NC(=O)Cc3ccccc3)C(=O)N2[C@H]1C(=O)O.CC1(C)S[C@@H]2[C@H](NC(=O)Cc3ccccc3)C(=O)N2[C@H]1C(=O)O.c1ccc(CNCCNCc2ccccc2)cc1 [Benzathine benzylpenicillin],−0.08998
16,CCOC(=O)c1ccc(N)cc1 [Benzocaine],−0.8317
17,CCCCNc1ccc(C(=O)OCCOCCOCCOCCOCCOCCOCCOCCOCCOC)cc1 [Benzonatate],0.6386
18,NS(=O)(=O)c1cc2c(cc1Cl)N=C(CSCc1ccccc1)NS2(=O)=O [Benzthiazide],0.3022
19,CN(C)CCCOc1nn(Cc2ccccc2)c2ccccc12 [Benzydamine hydrochloride],−1.272
20,CC1(C)S[C@@H]2[C@H](NC(=O)Cc3ccccc3)C(=O)N2[C@H]1C(=O)O [Benzylpenicillin sodium],−1.3
21,C[N+](C)(CCOc1ccccc1)Cc1ccccc1.O=C([O-])c1cc2ccccc2cc1O [Bephenium hydroxynaphthoate],0.5158
22,CC(C)COCC(CN(Cc1ccccc1)c1ccccc1)N1CCCC1 (stereo not drawn) [Bepridil hydrochloride],−0.5726
23,COc1ccc2cc3[n+](cc2c1OC)CCc1cc2c(cc1-3)OCO2 [Berberine chloride],1.018
24,COc1c(O)cc2c(c1O)[C@@H]1O[C@H](CO)[C@@H](O)[C@H](O)[C@H]1OC2=O [Bergenin monohydrate],1.238
25,CNCCc1ccccn1.CS(=O)(=O)O.CS(=O)(=O)O [Betahistine mesylate],−0.6301
26,C[C@H]1C[C@H]2[C@@H]3CCC4=CC(=O)C=C[C@]4(C)[C@@]3(F)[C@@H](O)C[C@]2(C)[C@@]1(O)C(=O)CO [Betamethasone],0.8711
27,CC(C)NCC(O)COc1ccc(CCOCC2CC2)cc1 (stereo not drawn) [Betaxolol hydrochloride],−0.5337
